Source: patent US20090163481A1, “PPAR-DELTA LIGANDS AND METHODS OF THEIR USE” (priority 2007, published 2009)
Where two headings read alike, the source gives them in different places.

Assays:
PC-3 cells = experiment: Western analysis of cyclin D1 and CDK2 in post-confluent PC-3 cells; assay type: cell-based, human; conditions: post-confluent PC-3, 48 h, SR 13904 10 μM, vehicle- and VLDL-treated cells
Experimental: Referring to FIG. 4, PC-3 cells were brought to confluence and cultured in serum-free OptiMem culture medium (Gibco) 2 h before treatment with a combination of VLDL (2 μg/ml+2 μg/ml LPL) and/or SR 13904 (10 μM) and incubated for an additional 48 h. Standard Western blotting was performed. Glyceraldehyde 3 phosphate dehydrogenase (GAPDH) was used a control for both blots.

[1] = biological target: T1, ligand binding domain of PPAR delta (Homo sapiens, UniProt Q03181); experiment: LANTHA SCREEN TR-FRET PPARδ Competitive Binding Assay
T1 construct: purchased Invitrogen
T1 sequence (Q03181 211-439 limits assumed): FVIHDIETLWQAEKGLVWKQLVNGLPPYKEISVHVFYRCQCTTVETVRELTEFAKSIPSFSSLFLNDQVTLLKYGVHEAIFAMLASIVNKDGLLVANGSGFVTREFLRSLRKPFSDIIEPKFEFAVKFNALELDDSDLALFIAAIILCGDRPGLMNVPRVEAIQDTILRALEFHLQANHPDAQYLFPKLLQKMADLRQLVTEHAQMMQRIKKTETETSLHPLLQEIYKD
Experimental: (§1) The LANTHA SCREEN™ TR-FRET PPARδ Competitive Binding Assay was conducted for a variety of compounds according to the instructions provided by the manufacturer (Invitrogen). In addition, proliferation assays were conducted. In Table 2, “Prolif IC50” is the concentration that inhibits cell viability (or growth) by 50% relative to a vehicle control, and “TR-F binding IC50 (μM)” is the concentration that competes binding by a labeled pan-agonist to the ligand binding domain of PPAR delta, by 50%.

A549 cultures = experiment: Real time PCR mRNA analysis of CDK2, CDK4, cyclin D1 in A549; assay type: cell-based, human; conditions: A549, 20 μM, 0.5% FBS, 24 and 48 h
Experimental: Referring now to FIG. 5D, to better define the level of regulation of SR13904 on cell cycle proteins, CDK2, CDK4, and cyclin D1 were selected for mRNA analysis using real time PCR. A549 cultures were treated with SR13904 (20 μM; 0.5% FBS) and sampled at 24- and 48-h time-points. […] For CDK2 the differences (SR13904-treated vs. vehicle control-treated) were significant (*p=0.01-0.05, **p=0.00-0.01). Computational analysis of the proximal human CDK2 promoter identified a number of putative consensus PPREs. None were found within the proximal promoter regions of the CDK4 and cyclin D1 genes. SR13904 may directly affect the transcriptional activity of CDK2 while exerting indirect effects on the expression of the CDK4 and cyclin D1 proteins, perhaps through control over PPARδ-dependent signaling pathways.

LBD of PPARδ protein = biological target: T2, LBD of PPARδ protein (Homo sapiens, UniProt Q03181); experiment: PPARδ ligand-binding domain (LBD)/Gal4 UAS-tk-luciferase reporter assay in U2-OS cells; assay type: cell-based
T2 construct: co-transfection of a plasmid containing an LBD/Gal4 fusion construct; expressed in transfected cells; host or cells: U2-OS (human bone cancer line)
T2 sequence (Q03181 211-439 limits assumed): T1 sequence (Q03181 211-439 limits assumed)
Experimental: General Testing Procedures. Each ligand was screened for PPARδ binding and transactivation activity through the use of two complementary reporter assays as described below. In both systems, transfection efficiency was standardized by co-transfection of a control Renilla luciferase. U2-OS (human bone cancer line) cells were used for both assays because this is the cell line of choice for screening PPAR ligands. At 18 h post-transfection, GW 501, with and without the ligands of the disclosure, was added to the cells and incubated for an additional 24 h. The cells were then harvested and luciferase activities profiled.
A PPARδ protein ligand-binding domain (LBD) assay. The LBD assay consists of cellular co-transfection of a plasmid containing an LBD/Gal4 fusion construct and a vector containing a UAS-tk-luciferase reporter construct under the transcriptional control of a Gal4 upstream activating sequence. This system was used to test for binding activities of candidate PPARδ ligands to the LBD of PPARδ protein.
Referring to FIG. 3, U2-OS cells were transiently transfected with appropriate expression and reporter vectors. Ligands were added to the cell cultures 24 h post-transfection and incubated for an additional 16 h. Lipoprotein lipase (LPL; 2 μg/ml) was added with VLDL (5 μg/ml) to release PPARδ-active triglycerides. FIG. 3A: PPARδ LBD/Gal4/UAS-tk-luc competition assays with VLDL SR13904 (0-10 μM). The reporter activation (fold increase over blank) is presented relative to GW501516 at 7 nM (fold increase over blank=100). FIG. 3B: PPRE reporter assays using 0, 1, and 10 μM SR13904+VLDL. All assays were repeated in triplicate.

A549 cells = experiment: Western blotting of cell-cycle regulatory proteins in A549 cells; assay type: cell-based, human; conditions: A549, 20 μM, 24 and 48 h, 0.5% FBS
Experimental: Referring now to FIG. 5C, SR13904 treatment of A549 human NSCLC cell line modulates cell cycle protein expression patterns toward an inhibitory phenotype. Given the flow cytometry results described above, the effect of SR13904 on the expression of some key cell-cycle regulatory proteins involved in G1 and S phases was investigated. A549 cells were grown in phenol-red-free DMEM+0.5% charcoal-treated FBS and exposed to the ligand. […]

[2] = Proliferation assay of Table 2 (cell line not stated); assay type: cell-based; conditions: concentration that inhibits cell viability (or growth) by 50% relative to vehicle control; read-out: Prolif IC50
Experimental: as §1

Cc1cc(SCc2sc(-c3cccc4ccccc34)nc2C)ccc1OCC(=O)O [SR 13904]
CDK2 protein levels (PC-3 cells; VLDL 2 μg/ml + LPL 2 μg/ml): decreased | cyclin D1 protein levels (PC-3 cells): decreased | IC50 ([1]; competes binding by a labeled pan-agonist by 50%, * = determined by approximation from a semi log graph, read-out: TR-F binding IC50): 2.4 µM | IC50 ([1]; repeat determination of TR-F binding IC50, read-out: repeat TR-F): 2.1 µM | CDK4 or cyclin D1 mRNA levels (A549 cultures): no effect | steady state levels of CDK2 mRNA (A549 cultures): significantly reduced | inhibition of binding of VLDL to PPARδ (LBD of PPARδ protein; SR13904 0-10 μM with VLDL): significantly inhibit | concentrations at which ligand binds LBD of PPARδ, attenuating LBD binding of GW501 (LBD of PPARδ protein; competition with GW501 (7 nM), U2-OS cells): 1 to 10 µM | PPARδ ligand profile (agonist/antagonist) (LBD of PPARδ protein; from GAL-4 binding and PPRE transactivation reporter screens): PPARδ antagonist | levels of cyclin E, p21, and p27 (A549 cells): little or no effect | steady state levels of CDK2, CDK4, cyclin D1, and cyclin A proteins (A549 cells): decreased | IC50 [2]: 12 µM
